Reference: patent US11357857B2, “Excipient compounds for protein processing” (COMERA LIFE SCIENCES, INC., priority 2014, dated 2022)
Where a name gives a salt, the structure may show the parent alone. Read-outs that look alike come from different tables or passages of the source.

Columns and labels:
[1] = system: bovine gamma globulin (BGG)
[2] = Viscosity of PEG (Mw ~1,000,000) solution in Tris buffer with excipient (Examples 12-13); format: physicochemical
[3] = system: bovine gamma globulin (BGG); assay: Viscosity of 280 mg/mL BGG formulations in 50 mM histidine HCl pH 6 with excipient, cone and plate viscometer (Examples 1, 2, 4-6); format: physicochemical

## CCN(CC)C(=O)c1cccnc1 [N,N-diethyl nicotinamide]
[1]; excipient 50 mg/mL
  Viscosity Reduction: 33%

## O=C(O)[C@H](O)[C@@H](O)[C@H](O)[C@H](O)CO [D-Gluconic acid/Na salt, D-Gluconic acid]
[2]; excipient 20 mg/mL
  Viscosity: 86.6 cP
  Viscosity Reduction: 17%
[2]; excipient 40 mg/mL
  Viscosity: 81.24 cP
  Viscosity Reduction: 23%

## C1COCCN1.Cl [Morpholine HCl]
[1]; excipient 50 mg/mL
  Viscosity Reduction: 40%

## O=C([O-])c1ccccc1.[Na+] [Sodium benzoate]
[3]; excipient 31 mg/mL
  Viscosity: 61 cP
  Viscosity Reduction: 23%
[3]; excipient 56 mg/mL
  Viscosity: 62 cP
  Viscosity Reduction: 22%

## O=P(O)(O)OCC(O)CO (stereo not shown) [glycerol phosphate]
[2]; excipient 20 mg/mL
  Viscosity: 83.9 cP
  Viscosity Reduction: 18%
[2]; excipient 40 mg/mL
  Viscosity: 71.7 cP
  Viscosity Reduction: 30%

## CC(O)(P(=O)(O)O)P(=O)(O)O [etidronic acid/Na salt, etidronic acid]
[2]; excipient 12 mg/mL
  Viscosity: 79.4 cP
  Viscosity Reduction: 24%
[2]; excipient 24 mg/mL
  Viscosity: 71.6 cP
  Viscosity Reduction: 32%

## Nc1ccc(S(=O)(=O)[O-])cc1.[Na+] [Sodium sulfanilate]
[3]; excipient 44 mg/mL
  Viscosity: 49 cP
  Viscosity Reduction: 38%
[3]; excipient 96 mg/mL
  Viscosity: 42 cP
  Viscosity Reduction: 47%

## CCCCn1cc[n+](C)c1.[I-] [1-butyl-3-methylimidazolium iodide]
[1]; excipient 60 mg/mL
  Viscosity Reduction: 34%

## CCCCCCn1cc[n+](C)c1.[Cl-] [1-hexyl-3-methylimidazolium chloride]
[1]; excipient 65 mg/mL
  Viscosity Reduction: 11%

## COc1cc(C(=O)[O-])ccc1O.[Na+] [Vanillic acid, sodium salt]
[3]; excipient 25 mg/mL
  Viscosity: 56 cP
  Viscosity Reduction: 29%
[3]; excipient 50 mg/mL
  Viscosity: 50 cP
  Viscosity Reduction: 37%

## CC1=NCCN1.Cl [2-methyl-2-imidazoline HCl]
[1]; excipient 60 mg/mL
  Normalized Viscosity: 0.43
  Viscosity Reduction: 57%

## CCCCn1cc[n+](C)c1.[Cl-] [1-butyl-3-methylimidazolium chloride]
[1]; excipient 100 mg/mL
  Viscosity Reduction: 52%

## CC(O)(P(=O)(O)O)P(=O)(O)O [etidronic acid/K salt, etidronic acid]
[2]; excipient 12 mg/mL
  Viscosity: 80.5 cP
  Viscosity Reduction: 23%
[2]; excipient 24 mg/mL
  Viscosity: 71.91 cP
  Viscosity Reduction: 31%

## O=C([O-])c1cccnc1.[Na+] [Nicotinic acid, sodium salt]
[1]; excipient 100 mg/mL
  Viscosity Reduction: 46%

## Arg-His [Dipeptide RH (Arg-His)]
[3]; excipient 50 mg/mL
  Viscosity: 52 cP
  Viscosity Reduction: 34%
[3]; excipient 100 mg/mL
  Viscosity: 72 cP
  Viscosity Reduction: 9%

## CN1CCCC1=O [N-Methyl-2-pyrrolidone]
[3]; excipient 30 mg/mL
  Viscosity: 45 cP
  Viscosity Reduction: 43%
[3]; excipient 52 mg/mL
  Viscosity: 52 cP
  Viscosity Reduction: 34%

## Cl.NCCc1c[nH]cn1 [Histamine HCl]
[1]; excipient 50 mg/mL
  Viscosity Reduction: 59%

## O=C(O)CCCC[C@@H]1SC[C@@H]2NC(=O)N[C@@H]21 [Biotin]
[1]; excipient 20 mg/mL
  Viscosity Reduction: 31%

## NC(C1CCCCC1)C1CCCCC1 [DCHMA-HCl, dicyclohexylmethylamine]
[3]; excipient 29 mg/mL
  Viscosity: 51 cP
  Viscosity Reduction: 35%
[3]; excipient 50 mg/mL
  Viscosity: 51 cP
  Viscosity Reduction: 35%

## O=C(O)CN(CCN(CC(=O)O)CC(=O)O)CC(=O)O [EDTA/K salt, ethylenediaminetetraacetic acid (EDTA)]
[2]; excipient 20 mg/mL
  Viscosity: 76.9 cP
  Viscosity Reduction: 27%
[2]; excipient 40 mg/mL
  Viscosity: 67.1 cP
  Viscosity Reduction: 36%

## Cc1cc(C)nc(C)c1 [2,4,6-trimethylpyridine]
[1]; excipient 50 mg/mL
  Viscosity Reduction: 51%
